Reference: patent US20230181584A1, “METHOD OF TREATING CANCER HAVING AN ACTIVATED HEDGEHOG PATHWAY” (Endeavor Biomedicines, Inc., priority 2021, published 2023)

Columns and labels:
[1] = background statement on Hh pathway inhibitors; cited from earlier work
[2] = test system: Gli1 activity; details: Daoy cells; as described in U.S. Pat. No. 9,000,023; read-out: IC50, inhibition of Gli1 activity; cited from earlier work
[3] = Safety in clinical trials of taladegib (healthy volunteers and advanced cancer patients); assay type: in vivo, human
Description: (§1) Approximately 192 study participants have received at least one dose of taladegib in sponsor-initiated and -controlled trials for the treatment of advanced cancers. The clinical trials were: • q. HHBB: Phase 1 dose-escalation study to evaluate the safety and tolerability of taladegib in patients with advanced cancer. • r. HHBE: Phase Ib/2 double-blind randomized study of the Human smoothened (hSmo) antagonist taladegib in combination with carboplatin and etoposide followed by taladegib versus carboplatin and etoposide plus placebo followed by placebo in patients with extensive stage small cell lung cancer (SCLC). • s. HHBH: Phase 1 study of taladegib in Japanese patients with advanced solid tumors. • t. HIPROC: An investigator-initiated Phase 1a/1b dose-escalation study of taladegib in combination with weekly intravenous paclitaxel in patients with advanced solid cancers. • u. HHBF: A Phase 1 ^14C metabolism study of 100 mg of taladegib in healthy subjects. • v. HHBG: A Phase 1 single ascending dose study of taladegib in healthy subjects.
(§2) Participants include approximately 156 advanced cancer patients from studies HHBB (N=95), HHBE (N=26), HHBH (N=19), HIPROC (N=16) and 36 healthy volunteers from studies HHBG (N=30) and HHBF (N=6).
As expected, AEs associated with chemotherapy were also observed when taladegib was used in combination with anti-neoplastic agents.

[4] = test system: advanced solid tumors; experiment: HHBH: Phase 1 study of taladegib in Japanese patients with advanced solid tumors; assay type: in vivo, human; details: N=19, RECIST v1.1
Description: as §1, §2
(§3) The primary tumor type enrolled was BCC. Additionally, responses in medulloblastoma (monotherapy), SCLC (in combination with carboplatin and etoposide) and ovarian cancer (in combination with paclitaxel) were also observed.

[5] = test system: advanced solid cancers; experiment: HIPROC: Phase 1a/1b dose-escalation study of taladegib with weekly intravenous paclitaxel; assay type: in vivo, human; details: in combination with weekly intravenous paclitaxel, N=16, RECIST v1.1
Description: as §1, §2, §3

[6] = test system: advanced cancer; experiment: HHBB: Phase 1 dose-escalation study of taladegib in patients with advanced cancer; assay type: in vivo, human; details: N=84, monotherapy, RECIST v1.1
Description: as §1, §2, §3

[7] = test system: extensive stage small cell lung cancer (SCLC); experiment: HHBE: Phase Ib/2 study of taladegib with carboplatin and etoposide in extensive stage SCLC; assay type: in vivo, human; details: in combination with carboplatin and etoposide, N=26, RECIST v1.1
Description: as §1, §2, §3

[8] = test system: advanced cancer; experiment: Clinical benefit across all completed studies of taladegib in advanced cancer (total); assay type: in vivo, human
Description: as §1, §2, §3

[9] = test system: advanced cancer; experiment: HHBB addendum; assay type: in vivo, human; details: N=11, RECIST v1.1
Description: as §3

[10] = Total of all completed studies, N=156

CS(=O)(=O)c1ccc(C(=O)Nc2ccc(Cl)c(-c3ccccn3)c2)c(Cl)c1 [vismodegib]
Toxicity [1]: unacceptable toxicity

CN(C(=O)c1ccc(F)cc1C(F)(F)F)C1CCN(c2nnc(-c3ccnn3C)c3ccccc23)CC1 [Taladegib, 4-Fluoro-N-methyl-N-(1-(4-(1-methyl-1H-pyrazol-5-yl)phthalazin-1-yl)piperidin-4-yl)-2-(trifluoromethyl)benzamide]
IC50 [2]: ~2.4 nM | Safety profile ([3]; advanced cancer patients, monotherapy and combination with anti-neoplastic agents): manageable safety profile | Most commonly observed AEs ([3]; as a monotherapy): nausea, diarrhea, dysgeusia, fatigue, decreased appetite, alopecia, vomiting, muscle spasm, constipation, weight decrease, and headache | Important potential risks associated with treatment ([3]; on the basis of preclinical and clinical data and information for molecules in the same therapeutic class): hepatic injury, embryotoxicity and teratogenicity, and rhabdomyolysis | CR (complete response), number of patients [4]: 0 (0%) | CR (complete response), percent of patients [4]: 0 (0%) | Clinical Benefit, number of patients [4]: 5 | Clinical Benefit, percent of patients [4]: 26% | PR (partial response), number of patients [4]: 1 | PR (partial response), percent of patients [4]: 5% | CR (complete response), number of patients [5]: 0 (0%) | CR (complete response), percent of patients [5]: 0 (0%) | Clinical Benefit, number of patients [5]: 10 | Clinical Benefit, percent of patients [5]: 62% | PR (partial response), number of patients [5]: 4 | PR (partial response), percent of patients [5]: 25% | CR (complete response), number of patients [6]: 5 | CR (complete response), percent of patients [6]: 6% | Clinical Benefit, number of patients [6]: 48 | Clinical Benefit, percent of patients [6]: 57% | PR (partial response), number of patients [6]: 17 | PR (partial response), percent of patients [6]: 20% | CR (complete response), number of patients [7]: 0 (0%) | CR (complete response), percent of patients [7]: 0 (0%) | Clinical Benefit, number of patients [7]: 21 | Clinical Benefit, percent of patients [7]: 81% | PR (partial response), number of patients [7]: 14 | PR (partial response), percent of patients [7]: 54% | CR (complete response), number of patients [8, 10]: 6 | CR (complete response), percent of patients [8, 10]: 4% | Clinical Benefit, number of patients [8, 10]: 94 | Clinical Benefit, percent of patients [8, 10]: 60% | PR (partial response), number of patients [8, 10]: 42 | PR (partial response), percent of patients [8, 10]: 27% | Clinical (RECIST v1.1) responses by dose ([8]; across all four multiple-dose studies in patients): responses were observed at all doses | Responses in SCLC ([8]; in combination with carboplatin and etoposide): observed | Responses in ovarian cancer ([8]; in combination with paclitaxel): observed | Responses in medulloblastoma ([8]; monotherapy): observed | CR (complete response), number of patients [9]: 1 | CR (complete response), percent of patients [9]: 9% | Clinical Benefit, number of patients [9]: 4 | Clinical Benefit, percent of patients [9]: 36% | PR (partial response), number of patients [9]: 0

CC1=C2C[C@H]3[C@@H](CC[C@@H]4C[C@H](NS(C)(=O)=O)CC[C@@]43C)[C@@H]2CC[C@@]2(C1)O[C@@H]1C[C@H](C)CN[C@H]1[C@H]2C [saridegib]
Toxicity [1]: unacceptable toxicity
